Measurements: patent publication US5902812A, “Pharmaceutical piperazine compounds” (Xenova Limited, priority 1994, dated 1999)

Target: PAI-1 (Homo sapiens, UniProt P05121)
Assay: biochemical

Chain of PAI-1 (P05121 24-402): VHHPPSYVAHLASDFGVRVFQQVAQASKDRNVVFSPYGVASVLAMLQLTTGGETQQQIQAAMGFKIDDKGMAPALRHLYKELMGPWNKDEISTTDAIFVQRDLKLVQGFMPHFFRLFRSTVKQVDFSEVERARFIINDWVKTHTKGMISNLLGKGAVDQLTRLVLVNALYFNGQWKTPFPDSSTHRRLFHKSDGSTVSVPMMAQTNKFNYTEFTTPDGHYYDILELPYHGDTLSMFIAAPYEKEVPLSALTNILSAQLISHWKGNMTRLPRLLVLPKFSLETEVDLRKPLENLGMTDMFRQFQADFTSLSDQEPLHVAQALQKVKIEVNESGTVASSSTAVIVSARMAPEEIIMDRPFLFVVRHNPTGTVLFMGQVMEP

inhibition at 20 µM (20 μM (third part of Table 1), read-out: Degree of inhibition in PAI chromogenic substrate assay) [%]	inhibition at 100 µM (100 μM (third part of Table 1), read-out: Degree of inhibition in PAI chromogenic substrate assay) [%]	IC50 (PAI chromogenic substrate assay, read-out: IC50) [nM]	Degree of inhibition in PAI chromogenic substrate assay (12.5 μM) [%]	Degree of inhibition in PAI chromogenic substrate assay (25 μM) [%]	Degree of inhibition in PAI chromogenic substrate assay (50 μM) [%]	Degree of inhibition in PAI chromogenic substrate assay (100 μM) [%]	SMILES
43	47	2500	–	–	–	–	CN(C)CCCOc1ccc(/C=c2\[nH]c(=O)/c(=C/c3ccc4c(c3)OCO4)[nH]c2=O)cc1 [Compound 5201, (3Z,6Z)-6-(4-(3-Dimethylaminopropoxy)benzylidene)-3-(3,4-methylenedioxybenzylidene)-2,5-piperazinedione]
–	–	–	1	1	1	7	CN(C)CCOc1ccccc1/C=c1\[nH]c(=O)/c(=C/c2ccccc2)[nH]c1=O [Compound 1946, (3Z,6Z)-3-Benzylidene-6-(2-(2-dimethylaminoethoxy)benzylidene)-2,5-piperazinedione]
–	–	–	7	26	41	51	CN(C)CCCN(CCCN(C)C)Cc1ccc(/C=c2\[nH]c(=O)/c(=C/c3ccccc3)[nH]c2=O)cc1 [Compound 1981, (3Z,6Z)-3-Benzylidene-6-(4-bis(3-dimethylaminopropyl)aminomethylbenzylidene)-2,5-piperazinedione]
